# According to patent US20080009418A1, “Selective Inhibitors” (Alchemia LTD., priority 2004, published 2008):
# Experiments:
# Human opioid (ORL1) = molecular target: T1, Human opioid (ORL1) (Homo sapiens, UniProt P41146); assay: Radioligand binding, human opioid ORL1 membranes, FlashPlate, [125I]-Nociceptin; conditions: compound at 10 μM, [125I]-Nociceptin
# T1 construct: purchased Perkin Elmer Biosignal
# Outline: (§1)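 Cloned human receptor membranes were coated onto FlashPlate wells and incubated with radioligand and compound (added from a 0.5 mM DMSO daughter plate) for 1 hour at room temperature in the dark. Scintillation counting gave percent inhibition, with DMSO defining total and reference ligand defining non-specific binding.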
# Mouse urotensin (mUR2) = molecular target: T2, Mouse urotensin (mUR2) (Mus musculus, UniProt Q8VIH9); assay: Radioligand binding, mouse urotensin mUR2 membranes, FlashPlate, [125I]-Urotensin II; conditions: compound at 10 μM, [125I]-Urotensin II
# T2 construct: purchased Perkin Elmer Biosignal
# T2 sequence (Q8VIH9 1-385): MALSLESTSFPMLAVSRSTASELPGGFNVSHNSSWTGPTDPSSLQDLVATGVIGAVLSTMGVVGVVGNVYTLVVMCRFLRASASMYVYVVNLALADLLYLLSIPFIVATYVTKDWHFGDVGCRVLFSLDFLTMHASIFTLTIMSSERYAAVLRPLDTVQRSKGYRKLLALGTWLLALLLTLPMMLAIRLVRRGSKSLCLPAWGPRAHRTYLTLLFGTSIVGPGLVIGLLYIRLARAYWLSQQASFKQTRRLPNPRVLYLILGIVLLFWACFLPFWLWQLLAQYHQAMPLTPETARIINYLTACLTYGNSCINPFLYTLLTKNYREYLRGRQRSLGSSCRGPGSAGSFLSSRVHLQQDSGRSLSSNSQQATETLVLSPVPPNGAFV
# Outline: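 Cloned mouse urotensin (mUR2) receptor membranes from Perkin Elmer Biosignal were immobilized in FlashPlate microplates using a proprietary coating. Each well got 19.5 μl buffer, then 0.5 μl of DMSO, reference ligand, or compound. Adding 5 μl of [125I]-Urotensin II, diluted to 5× final concentration in binding buffer, started binding. Plates were sealed with TopSeal-A and incubated 1 hour at room temperature in the dark. Wells were counted for 30 seconds each on a TopCount after a 60-second delay, and percentage inhibition was calculated.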
# Human δ-opioid (DOP) = molecular target: T3, Human δ-opioid (DOP) (Homo sapiens, UniProt P41143); assay: Radioligand binding, human δ-opioid (DOP) membranes, FlashPlate, [3H]-Bremazocine; conditions: compound at 10 μM, [3H]-Bremazocine
# T3 construct: purchased Perkin Elmer Biosignal
# T3 sequence (P41143 whole entry): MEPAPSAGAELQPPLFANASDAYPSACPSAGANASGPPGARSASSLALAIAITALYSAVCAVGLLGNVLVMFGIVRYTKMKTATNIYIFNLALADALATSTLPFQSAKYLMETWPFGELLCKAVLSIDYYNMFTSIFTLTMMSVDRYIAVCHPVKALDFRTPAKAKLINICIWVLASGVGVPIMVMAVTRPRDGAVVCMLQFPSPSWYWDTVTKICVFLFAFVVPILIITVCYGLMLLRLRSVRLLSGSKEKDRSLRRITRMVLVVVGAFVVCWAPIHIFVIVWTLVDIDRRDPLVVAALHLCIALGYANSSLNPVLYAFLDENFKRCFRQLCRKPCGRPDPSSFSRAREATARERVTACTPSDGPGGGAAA
# Outline: as §1
# Human Melanocortin (MC4) = molecular target: T4, Human Melanocortin (MC4) (Homo sapiens, UniProt P32245); assay: Radioligand binding, human melanocortin MC4 membranes, FlashPlate, [125I]-NDP-αMSH; conditions: compound at 10 μM, [125I]-NDP-αMSH
# T4 construct: purchased Perkin Elmer Biosignal
# T4 sequence (P32245 whole entry): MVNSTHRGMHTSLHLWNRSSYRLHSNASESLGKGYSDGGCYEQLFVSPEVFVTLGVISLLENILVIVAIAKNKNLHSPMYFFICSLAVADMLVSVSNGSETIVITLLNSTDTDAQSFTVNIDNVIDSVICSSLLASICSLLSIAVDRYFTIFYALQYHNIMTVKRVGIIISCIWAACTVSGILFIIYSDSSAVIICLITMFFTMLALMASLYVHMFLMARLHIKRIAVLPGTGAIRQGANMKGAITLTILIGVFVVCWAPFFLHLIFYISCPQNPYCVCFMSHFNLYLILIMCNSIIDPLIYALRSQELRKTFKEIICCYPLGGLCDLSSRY
# Outline: as §1
# Human μ-opioid (MOP) = molecular target: T5, Human μ-opioid (MOP) (Homo sapiens, UniProt P35372); assay: Radioligand binding, human μ-opioid (MOP) membranes, FlashPlate, [3H]-Naloxone; conditions: compound at 10 μM, [3H]-Naloxone
# T5 construct: purchased Perkin Elmer Biosignal
# T5 sequence (P35372 whole entry): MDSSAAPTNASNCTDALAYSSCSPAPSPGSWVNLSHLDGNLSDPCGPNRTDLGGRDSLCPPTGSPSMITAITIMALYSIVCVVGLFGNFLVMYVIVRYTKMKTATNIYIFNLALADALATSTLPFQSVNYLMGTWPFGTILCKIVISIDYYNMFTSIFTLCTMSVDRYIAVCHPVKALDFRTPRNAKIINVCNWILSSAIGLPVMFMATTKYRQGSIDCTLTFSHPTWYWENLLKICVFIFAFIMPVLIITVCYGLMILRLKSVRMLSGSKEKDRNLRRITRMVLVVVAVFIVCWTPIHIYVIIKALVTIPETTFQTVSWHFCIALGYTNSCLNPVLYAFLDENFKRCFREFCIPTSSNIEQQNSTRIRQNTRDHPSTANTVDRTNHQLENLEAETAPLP
# Outline: as §1
# [1] = molecular target: T6, Human neuropeptide Y (NPY-Y1) (Homo sapiens, UniProt P25929); assay: Radioligand binding, human neuropeptide Y NPY-Y1 membranes, FlashPlate, [125I]-PYY; conditions: compound at 10 μM, [125I]-PYY
# T6 construct: purchased Perkin Elmer Biosignal
# T6 sequence (P25929 1-384): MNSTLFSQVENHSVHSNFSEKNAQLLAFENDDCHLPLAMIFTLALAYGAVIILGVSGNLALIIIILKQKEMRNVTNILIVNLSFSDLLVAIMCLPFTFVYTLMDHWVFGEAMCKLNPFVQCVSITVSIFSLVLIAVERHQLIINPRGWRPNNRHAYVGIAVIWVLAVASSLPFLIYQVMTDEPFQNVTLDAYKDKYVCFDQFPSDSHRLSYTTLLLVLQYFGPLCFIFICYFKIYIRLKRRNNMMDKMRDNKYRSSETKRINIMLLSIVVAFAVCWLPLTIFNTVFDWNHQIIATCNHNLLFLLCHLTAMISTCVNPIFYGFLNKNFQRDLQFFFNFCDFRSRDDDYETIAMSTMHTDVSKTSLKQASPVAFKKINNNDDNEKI
# Outline: as §1
# Human melanocortin (MC5) = molecular target: T7, Human melanocortin (MC5) (Homo sapiens, UniProt P33032); assay: Radioligand binding, human melanocortin MC5 membranes, FlashPlate, [125I]-NDP-αMSH; conditions: compound at 10 μM, [125I]-NDP-αMSH
# T7 construct: purchased Perkin Elmer Biosignal
# T7 sequence (P33032 whole entry): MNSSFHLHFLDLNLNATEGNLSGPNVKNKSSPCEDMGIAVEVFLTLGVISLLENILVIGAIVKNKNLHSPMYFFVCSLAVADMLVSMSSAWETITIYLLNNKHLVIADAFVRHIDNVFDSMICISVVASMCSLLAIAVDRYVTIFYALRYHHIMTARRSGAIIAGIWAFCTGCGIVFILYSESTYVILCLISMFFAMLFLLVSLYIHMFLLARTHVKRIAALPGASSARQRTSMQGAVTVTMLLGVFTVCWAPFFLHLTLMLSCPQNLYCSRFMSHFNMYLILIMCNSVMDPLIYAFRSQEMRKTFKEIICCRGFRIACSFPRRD
# Outline: as §1
# Human κ-Opioid (KOP) = molecular target: T8, Human κ-Opioid (KOP) (Homo sapiens, UniProt P41145); assay: Radioligand binding, human κ-opioid (KOP) membranes, filtration, [3H]-Diprenorphine; conditions: compound at 10 μM, [3H]-Diprenorphine
# T8 construct: purchased Perkin Elmer Biosignal
# T8 sequence (P41145 whole entry): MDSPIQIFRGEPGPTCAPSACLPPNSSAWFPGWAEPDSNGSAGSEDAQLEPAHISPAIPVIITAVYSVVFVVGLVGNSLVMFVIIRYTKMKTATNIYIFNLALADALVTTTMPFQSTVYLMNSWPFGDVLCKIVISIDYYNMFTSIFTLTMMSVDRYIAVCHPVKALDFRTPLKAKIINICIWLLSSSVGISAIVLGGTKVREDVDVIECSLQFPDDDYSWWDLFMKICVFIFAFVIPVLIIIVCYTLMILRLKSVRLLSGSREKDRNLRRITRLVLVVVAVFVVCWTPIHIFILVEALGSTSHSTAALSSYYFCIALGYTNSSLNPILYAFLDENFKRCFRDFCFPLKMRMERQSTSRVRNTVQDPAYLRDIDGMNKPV
# Outline: (§2)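 Percent inhibition of radioligand binding measured on recombinant human membranes: NK1 with [125I]-Substance P, KOP with [3H]-Diprenorphine. Incubation 1 h at room temperature, then harvest onto 0.3% PEI-soaked filters, cold Tris-HCl pH 7.4 washes and scintillation counting; non-specific binding from reference ligand wells.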
# Human Melanocortin (MC3) = molecular target: T9, Human Melanocortin (MC3) (Homo sapiens, UniProt P41968); assay: Radioligand binding, human melanocortin MC3 membranes, FlashPlate, [125I]-NDP-αMSH; conditions: compound at 10 μM, [125I]-NDP-αMSH
# T9 construct: purchased Perkin Elmer Biosignal
# T9 sequence (P41968 whole entry): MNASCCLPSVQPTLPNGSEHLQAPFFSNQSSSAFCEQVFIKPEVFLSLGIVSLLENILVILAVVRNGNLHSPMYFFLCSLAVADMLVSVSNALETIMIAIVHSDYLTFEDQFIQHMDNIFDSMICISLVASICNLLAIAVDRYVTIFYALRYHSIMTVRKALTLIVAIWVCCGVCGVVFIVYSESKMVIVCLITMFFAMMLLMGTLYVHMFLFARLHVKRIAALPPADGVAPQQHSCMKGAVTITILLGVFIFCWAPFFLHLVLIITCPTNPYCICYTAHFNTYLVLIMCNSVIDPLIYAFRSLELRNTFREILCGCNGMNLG
# Outline: as §1
# Human neurokinin (NK1) = molecular target: T10, Human neurokinin (NK1) (Homo sapiens, UniProt P25103); assay: Radioligand binding, human neurokinin NK1 membranes, filtration, [125I]-Substance P; conditions: compound at 10 μM, [125I]-Substance P
# T10 construct: purchased Perkin Elmer Biosignal
# T10 sequence (P25103 whole entry): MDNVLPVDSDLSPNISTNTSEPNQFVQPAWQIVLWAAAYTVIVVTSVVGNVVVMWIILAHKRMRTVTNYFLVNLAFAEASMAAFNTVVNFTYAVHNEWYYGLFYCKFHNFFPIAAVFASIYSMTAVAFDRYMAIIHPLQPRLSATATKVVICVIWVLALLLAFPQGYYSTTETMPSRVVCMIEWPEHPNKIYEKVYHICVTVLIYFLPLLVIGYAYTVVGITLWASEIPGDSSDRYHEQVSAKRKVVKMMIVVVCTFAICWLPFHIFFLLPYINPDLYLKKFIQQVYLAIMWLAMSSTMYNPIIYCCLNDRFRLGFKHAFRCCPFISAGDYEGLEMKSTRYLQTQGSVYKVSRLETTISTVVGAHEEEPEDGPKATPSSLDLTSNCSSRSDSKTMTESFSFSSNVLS
# Outline: as §2
# [2] = molecular target: T11, Human melanin-concentrating hormone (MCH1) (Homo sapiens, UniProt Q99705); assay: Radioligand binding, human melanin-concentrating hormone MCH1 membranes, FlashPlate, [125I]-S36057; conditions: compound at 10 μM
# T11 construct: purchased Perkin Elmer Biosignal
# T11 sequence (Q99705 whole entry): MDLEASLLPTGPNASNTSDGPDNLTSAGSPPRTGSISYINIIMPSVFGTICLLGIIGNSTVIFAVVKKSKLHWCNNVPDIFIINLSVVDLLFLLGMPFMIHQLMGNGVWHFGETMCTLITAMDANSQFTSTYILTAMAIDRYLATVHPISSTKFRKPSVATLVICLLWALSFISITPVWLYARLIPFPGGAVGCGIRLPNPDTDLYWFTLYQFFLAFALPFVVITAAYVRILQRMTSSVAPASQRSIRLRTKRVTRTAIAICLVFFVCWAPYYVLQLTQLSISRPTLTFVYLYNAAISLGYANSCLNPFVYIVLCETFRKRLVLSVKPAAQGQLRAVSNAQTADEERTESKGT
# Outline: as §1
# T1 sequence (P41146 whole entry): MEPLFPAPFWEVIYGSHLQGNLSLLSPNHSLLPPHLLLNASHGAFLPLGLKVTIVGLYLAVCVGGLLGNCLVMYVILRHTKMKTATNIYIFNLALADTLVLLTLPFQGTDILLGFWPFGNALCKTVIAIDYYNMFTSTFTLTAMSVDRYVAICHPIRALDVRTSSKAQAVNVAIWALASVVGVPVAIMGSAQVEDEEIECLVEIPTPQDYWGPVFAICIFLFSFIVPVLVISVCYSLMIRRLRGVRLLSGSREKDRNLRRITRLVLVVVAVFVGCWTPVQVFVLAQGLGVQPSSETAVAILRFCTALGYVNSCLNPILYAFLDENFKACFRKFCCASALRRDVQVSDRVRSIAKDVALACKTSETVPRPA
smiles,measurement,setting,value
N=C(N)NCC(=O)NC1C(OCc2ccc(Cl)cc2)OC(COCc2ccc3ccccc3c2)C(O)C1OCc1ccc(-c2ccccc2)cc1 (stereo not drawn) [compound 423],A10: inhibition of radioligand binding,Human opioid (ORL1); human ORL1 membranes,+ (“+” indicates greater than 50% inhibition at 10 μM)
same,A11: inhibition of radioligand binding,Mouse urotensin (mUR2); mouse mUR2 membranes,− (“−” indicates less than 50% inhibition at 10 μM)
same,A1: inhibition of radioligand binding,Human δ-opioid (DOP); human DOP membranes,− (“−” indicates less than 50% inhibition at 10 μM)
same,A4: inhibition of radioligand binding,Human Melanocortin (MC4); human MC4 membranes,+ (“+” indicates greater than 50% inhibition at 10 μM)
same,A7: inhibition of radioligand binding,Human μ-opioid (MOP); human MOP membranes,− (“−” indicates less than 50% inhibition at 10 μM)
same,A9: inhibition of radioligand binding,[1]; human NPY-Y1 membranes,− (“−” indicates less than 50% inhibition at 10 μM)
same,A5: inhibition of radioligand binding,Human melanocortin (MC5); human MC5 membranes,+ (“+” indicates greater than 50% inhibition at 10 μM)
same,A2: inhibition of radioligand binding,Human κ-Opioid (KOP); human KOP membranes,− (“−” indicates less than 50% inhibition at 10 μM)
same,A3: inhibition of radioligand binding,Human Melanocortin (MC3); human MC3 membranes,+ (“+” indicates greater than 50% inhibition at 10 μM)
same,A8: inhibition of radioligand binding,Human neurokinin (NK1); human NK1 membranes,+ (“+” indicates greater than 50% inhibition at 10 μM)
same,A6: inhibition of radioligand binding,"[2]; [125I]-S36057, human MCH1 membranes",− (“−” indicates less than 50% inhibition at 10 μM)
COC[C@H]1OC(OCc2cccc(O)c2)[C@H](NC(=O)CCNC(=N)N)[C@@H](OCc2ccc(-c3ccccc3)cc2)[C@@H]1O (stereo partly drawn) [compound 142],"A10 radioligand binding, percentage inhibition",Human opioid (ORL1),− (“−” indicates less than 50% inhibition at 10 μM)
same,"A11 radioligand binding, percentage inhibition",Mouse urotensin (mUR2),− (“−” indicates less than 50% inhibition at 10 μM)
same,"A1 radioligand binding, percentage inhibition",Human δ-opioid (DOP),− (“−” indicates less than 50% inhibition at 10 μM)
same,"A4 radioligand binding, percentage inhibition",Human Melanocortin (MC4),− (“−” indicates less than 50% inhibition at 10 μM)
same,"A7 radioligand binding, percentage inhibition",Human μ-opioid (MOP),− (“−” indicates less than 50% inhibition at 10 μM)
same,"A9 radioligand binding, percentage inhibition",[1],− (“−” indicates less than 50% inhibition at 10 μM)
same,"A5 radioligand binding, percentage inhibition",Human melanocortin (MC5),− (“−” indicates less than 50% inhibition at 10 μM)
same,"A2 radioligand binding, percentage inhibition",Human κ-Opioid (KOP),− (“−” indicates less than 50% inhibition at 10 μM)
same,"A3 radioligand binding, percentage inhibition",Human Melanocortin (MC3),− (“−” indicates less than 50% inhibition at 10 μM)
same,"A8 radioligand binding, percentage inhibition",Human neurokinin (NK1),− (“−” indicates less than 50% inhibition at 10 μM)
same,"A6 radioligand binding, percentage inhibition",[2]; [125I]-S36057,+ (“+” indicates greater than 50% inhibition at 10 μM)
NCCC(=O)NC1COC(COCc2ccc(-c3ccccc3)cc2)C(O)C1OCc1ccc(Cl)cc1 (stereo not drawn) [compound 544],"A10: inhibition of radioligand binding, human opioid (ORL1)",Human opioid (ORL1),− (“−” indicates less than 50% inhibition at 10 μM)
same,"A11: inhibition of radioligand binding, mouse urotensin (mUR2)",Mouse urotensin (mUR2),− (“−” indicates less than 50% inhibition at 10 μM)
same,"A1: inhibition of radioligand binding, human δ-opioid (DOP)",Human δ-opioid (DOP),− (“−” indicates less than 50% inhibition at 10 μM)
same,"A4: inhibition of radioligand binding, human melanocortin (MC4)",Human Melanocortin (MC4),− (“−” indicates less than 50% inhibition at 10 μM)
same,"A7: inhibition of radioligand binding, human μ-opioid (MOP)",Human μ-opioid (MOP),− (“−” indicates less than 50% inhibition at 10 μM)
same,"A9: inhibition of radioligand binding, human neuropeptide Y (NPY-Y1)",[1],− (“−” indicates less than 50% inhibition at 10 μM)
same,"A5: inhibition of radioligand binding, human melanocortin (MC5)",Human melanocortin (MC5),− (“−” indicates less than 50% inhibition at 10 μM)
same,"A2: inhibition of radioligand binding, human κ-opioid (KOP)",Human κ-Opioid (KOP),+ (“+” indicates greater than 50% inhibition at 10 μM)
same,"A3: inhibition of radioligand binding, human melanocortin (MC3)",Human Melanocortin (MC3),+ (“+” indicates greater than 50% inhibition at 10 μM)
same,"A8: inhibition of radioligand binding, human neurokinin (NK1)",Human neurokinin (NK1),+ (“+” indicates greater than 50% inhibition at 10 μM)
same,"A6: inhibition of radioligand binding, human melanin-concentrating hormone (MCH1)",[2]; [125I]-S36057,− (“−” indicates less than 50% inhibition at 10 μM)
